Molecular target: T1, 5-hydroxytryptamine receptor 1A (Homo sapiens, UniProt P08908)
T1 sequence (P08908 whole entry): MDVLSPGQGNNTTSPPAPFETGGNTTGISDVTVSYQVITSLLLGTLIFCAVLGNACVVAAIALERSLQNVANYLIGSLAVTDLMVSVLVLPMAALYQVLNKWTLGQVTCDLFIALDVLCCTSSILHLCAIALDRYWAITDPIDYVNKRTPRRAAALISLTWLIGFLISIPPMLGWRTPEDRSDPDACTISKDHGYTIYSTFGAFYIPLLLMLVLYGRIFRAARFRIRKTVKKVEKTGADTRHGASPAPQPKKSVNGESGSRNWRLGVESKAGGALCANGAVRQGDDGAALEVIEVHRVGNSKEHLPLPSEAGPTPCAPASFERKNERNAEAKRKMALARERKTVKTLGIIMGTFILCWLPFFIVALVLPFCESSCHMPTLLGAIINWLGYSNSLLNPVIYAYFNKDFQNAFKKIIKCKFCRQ
Experiment: Displacement of [3H]8-OH-DPAT from 5HT1A receptor by vacuum filtration

Compound: COc1cc(-c2oc3cc(O)cc(=O)c-3c(O)c2O[C@@H]2O[C@H](CO)[C@H](O)[C@H](O)[C@H]2O)ccc1O [isohamnetin 3-O-galactoside]
- Ki: > 100 µM

— BindingDB's records for doi:10.1021/np960678l (1997)
